Measured values: patent US9708639B2, “Method for quantifying amino acids with pyrophosphate” (TOYAMA PREFECTURE, priority 2012, dated 2017)

Tests used:
Test in all cases: Qualitative test of AARS substrate specificity (molybdenum blue method)
Format in all cases: biochemical, Thermotoga maritima MSB8 strain
Set-up in all cases: key: +: Activity was detected; −: Activity was not detected
Thermotoga-derived SerRS = biological target: T1, Thermotoga-derived SerRS (Thermotoga maritima, UniProt Q9X199); conditions: Tyr 1 mM, other amino acids 5 mM; hydroxylamine 1000 mM; SerRS 0.1 mg/ml (1 mU/ml); 30° C.
T1 construct: His tag (C); made in house; host or cells: Escherichia coli BL21 (DE3)
Method: (§1) A test sample containing an amino acid as the measurement subject and a reaction mixture for quantifying amino acid having the following composition were mixed. The mixture was left standing at 30° C. to allow the AARS reaction to advance. The mixture in a volume of 33 μl, 66 μl of water, and 1 μl of a 300 U/ml yeast pyrophosphatase solution were mixed, and left standing at room temperature for 20 minutes to allow the pyrophosphatase reaction to advance. Then, the reaction mixture was mixed with 100 μl of a color development solution A and 30 μl of a color developing solution B having the following compositions, then the mixture was left standing at room temperature for 5 minutes, and the absorbance was measured at 700 nm or 900 nm with a microplate reader.
(§2) Reaction mixture for quantifying amino acid: 20 mM Tris-HCl (pH 7.0), 5 mM MgCl2, 2 mM ATP, and AARS (concentrations are final concentrations obtained after mixing with test sample)
(§3) Color developing solution A: A solution obtained by mixing water and concentrated sulfuric acid at a ratio of 3:1 and dissolving (NH4)6Mo7O24.4H2O in the mixture at a concentration of 0.066 g/ml
(§4) Color developing solution B: A solution obtained by mixing water and concentrated sulfuric acid at a ratio of 10000:7 and dissolving FeSO4.7H2O in the mixture at a concentration of 145 mg/ml
(§5) Presence or absence of pyrophosphate generation was verified for the Thermotoga-derived CysRS, HisRS, LysRS, ProRS, SerRS, TrpRS, and TyrRS by using the AARS activity measurement method described in 9. and standard solutions of the various amino acids as test samples. AARSs were added to the reaction mixture at final concentrations of 0.3 (8 mU/ml), 0.1, 0.2 (3 mU/ml), 0.2, 0.1 (1 mU/ml), 0.1, 0.2 (20 mU/ml) mg/ml, respectively. The reaction mixtures were prepared so that the final concentration of Tyr was 1 mM, and the final concentrations of the other amino acids were 5 mM. As for the hydroxylamine concentration, it was added at a final concentration of 1000 mM for all the cases. Further, presence or absence of pyrophosphate production was also verified for the Thermus-derived MetRS and TyrRS by using the AARS activity measurement method described in 10. and standard solutions of the various amino acids as test samples. The reaction mixtures were prepared so that the final concentrations of the amino acids were 200 μM. Hydroxylamine was added at a final concentration of 400 mM.
(§6) Detection or no detection of the activity in the reaction mixtures containing a combination of each AARS and amino acid are shown in Table 2. The symbol + indicates detection of the activity, and − indicates no detection of the activity.

Thermotoga-derived LysRS = biological target: T2, Thermotoga-derived LysRS (Thermotoga maritima, UniProt Q9X231); conditions: Tyr 1 mM, other amino acids 5 mM; hydroxylamine 1000 mM; LysRS 0.2 mg/ml (3 mU/ml); 30° C.
T2 construct: His tag (C); made in house; host or cells: Escherichia coli BL21 (DE3)
T2 sequence (Q9X231 1-502): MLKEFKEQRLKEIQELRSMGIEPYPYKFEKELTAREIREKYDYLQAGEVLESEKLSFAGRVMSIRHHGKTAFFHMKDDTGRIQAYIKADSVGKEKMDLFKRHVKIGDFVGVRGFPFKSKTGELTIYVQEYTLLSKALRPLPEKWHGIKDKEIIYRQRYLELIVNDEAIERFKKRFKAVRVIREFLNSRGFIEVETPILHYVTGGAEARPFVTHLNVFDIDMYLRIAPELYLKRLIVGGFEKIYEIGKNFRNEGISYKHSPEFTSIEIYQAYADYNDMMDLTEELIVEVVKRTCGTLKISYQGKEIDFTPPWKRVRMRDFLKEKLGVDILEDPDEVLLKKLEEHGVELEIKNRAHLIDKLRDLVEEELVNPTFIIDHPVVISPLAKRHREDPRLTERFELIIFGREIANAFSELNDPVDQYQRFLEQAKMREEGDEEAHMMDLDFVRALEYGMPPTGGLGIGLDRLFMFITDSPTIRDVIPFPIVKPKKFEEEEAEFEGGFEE
Method: as §1, §2, §3, §4, §5, §6

Thermotoga-derived TyrRS = biological target: T3, Thermotoga-derived TyrRS (Thermotoga maritima, UniProt Q9WYU8); conditions: Tyr 1 mM, other amino acids 5 mM; hydroxylamine 1000 mM; TyrRS 0.2 mg/ml (20 mU/ml); 30° C.
T3 construct: The amplification products were each inserted into pET-28a to obtain plasmids for expression of respective AARSs; His tag (N); made in house; host or cells: Escherichia coli BL21 (DE3)
T3 sequence (Q9WYU8 1-401): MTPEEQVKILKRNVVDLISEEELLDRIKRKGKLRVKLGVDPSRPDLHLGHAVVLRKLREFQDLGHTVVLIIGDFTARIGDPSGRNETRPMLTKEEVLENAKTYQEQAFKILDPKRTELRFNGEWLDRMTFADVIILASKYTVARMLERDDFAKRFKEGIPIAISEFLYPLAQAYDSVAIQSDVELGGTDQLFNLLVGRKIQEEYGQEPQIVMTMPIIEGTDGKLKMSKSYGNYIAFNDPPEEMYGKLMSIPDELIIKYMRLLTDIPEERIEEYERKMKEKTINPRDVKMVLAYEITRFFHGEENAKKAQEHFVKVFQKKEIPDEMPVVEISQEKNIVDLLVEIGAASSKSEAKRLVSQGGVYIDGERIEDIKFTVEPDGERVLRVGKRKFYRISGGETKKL
Method: as §1, §2, §3, §4, §5, §6

Thermotoga-derived TrpRS = biological target: T4, Thermotoga-derived TrpRS (Thermotoga maritima, UniProt Q9WYW2); conditions: Tyr 1 mM, other amino acids 5 mM; hydroxylamine 1000 mM; TrpRS 0.1 mg/ml; 30° C.
T4 construct: His tag (C); made in house; host or cells: Escherichia coli BL21 (DE3)
T4 sequence (Q9WYW2 1-328): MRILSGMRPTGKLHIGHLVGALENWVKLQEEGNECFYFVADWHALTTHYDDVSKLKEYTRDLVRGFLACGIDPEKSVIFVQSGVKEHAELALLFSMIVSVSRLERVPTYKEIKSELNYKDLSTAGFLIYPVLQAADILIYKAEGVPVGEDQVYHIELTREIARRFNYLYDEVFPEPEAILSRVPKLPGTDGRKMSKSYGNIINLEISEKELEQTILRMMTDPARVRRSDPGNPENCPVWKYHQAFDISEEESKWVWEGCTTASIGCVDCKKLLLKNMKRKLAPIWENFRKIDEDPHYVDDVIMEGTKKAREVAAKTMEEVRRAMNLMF
Method: as §1, §2, §3, §4, §5, §6

T1 sequence (Q9X199 whole entry): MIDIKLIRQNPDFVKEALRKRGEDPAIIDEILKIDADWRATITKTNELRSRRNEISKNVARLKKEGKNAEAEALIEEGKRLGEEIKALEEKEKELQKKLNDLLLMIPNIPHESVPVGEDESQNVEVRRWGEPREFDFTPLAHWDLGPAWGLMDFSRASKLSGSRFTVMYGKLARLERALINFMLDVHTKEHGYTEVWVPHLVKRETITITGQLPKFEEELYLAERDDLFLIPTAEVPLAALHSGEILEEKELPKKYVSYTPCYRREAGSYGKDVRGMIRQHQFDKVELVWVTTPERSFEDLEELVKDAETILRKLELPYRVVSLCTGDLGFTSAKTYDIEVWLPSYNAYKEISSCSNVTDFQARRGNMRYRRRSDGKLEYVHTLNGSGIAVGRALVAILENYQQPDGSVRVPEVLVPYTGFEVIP

N=C(N)NCCC[C@H](N)C(=O)O [Arg, L-arginine]
−: Detection of the activity (pyrophosphate generation), SerRS (Thermotoga-derived SerRS) | Detection of the activity (pyrophosphate generation), LysRS (Thermotoga-derived LysRS) | Detection of the activity (pyrophosphate generation), TyrRS (Thermotoga) (Thermotoga-derived TyrRS) | Detection of the activity (pyrophosphate generation), TrpRS (Thermotoga-derived TrpRS)

CC[C@H](C)[C@H](N)C(=O)O [Ile, L-isoleucine]
−: Detection of the activity (pyrophosphate generation), SerRS (Thermotoga-derived SerRS) | Detection of the activity (pyrophosphate generation), LysRS (Thermotoga-derived LysRS) | Detection of the activity (pyrophosphate generation), TyrRS (Thermotoga) (Thermotoga-derived TyrRS) | Detection of the activity (pyrophosphate generation), TrpRS (Thermotoga-derived TrpRS)
